Laboratory results taken from patent US20160067221A1, “USE OF ERGOTHIONEINE FOR INDUCING ACTIVITY OF NRF2 IN CELL” (China Medical University, priority 2014, published 2016).

Key:
Assay type in all cases: cell-based, human
[1] = tested on: UVA-irradiated HaCaT cells; experiment: Total glutathione (GSH) content, DTNB method; details: 125-500 nM 24 hours prior to 15 J/cm^2 UVA, 4 hours; dose-dependent
Description: A glutathione (GSH), the antioxidant in animal cells, can protect DNA against external oxidative stresses. Given that the ergothioneine treatment to the HaCaT cells can reduce the DNA damage of the HaCaT cells; this example next investigates the UVA-induced oxidative damage by determining a total GSH content of the HaCaT cells treated with the ergothioneine or the UVA irradiation. A glutathione disulfide (GSSG) is an oxidized form of the GSH, and the GSSG can be reduced to the GSH by a glutathione reductase. Antioxidant enzymes, such as glutathione peroxidases and peroxiredoxins, generate glutathione disulfide during the reduction of peroxides such as hydrogen peroxide (H2O2) and organic hydroperoxides (ROOH). The GSH generates a yellow-colored 5-thio-2-nitrobenzoic acid (TNB) and a […] GSTNB (between GSH and TNB) during the reaction of 5,5′-dithiobis-(2-nitrobenzoic acid) (DTNB), wherein the content of (GSSG+GSH) is the rate determining factor of color production in aforementioned reactions. The rate of the yellow-colored TNB production is directly proportional to the concentration of (GSSG+GSH) in a sample. Thus, measurement of the absorbance of the TNB provides an accurate estimation of the amount of total glutathione (GSSG+GSH) in the sample. […] The net absorbance at 405 nm yields an accurate amount of the total glutathione in the sample.

Nrf2 [2] = experiment: Nrf2 nuclear translocation (Western blot of cytosolic and nuclear Nrf2, immunofluorescence staining); details: for nuclear Nrf2 protein expression / cytosolic Nrf2 protein expression: Western blot
Protocol: This example next investigates the effect of the ergothioneine on the Nrf2 nuclear translocation. The HaCat cells are pretreated with the ergothioneine for 24 hours, and then exposed to 15 J/cm^2 UVA for 1 hour. The protein expressions of a cytosolic Nrf2 and a nuclear Nrf2 are detected by the Western blot analysis, and a nuclear import of Nrf2 of the HaCaT cell is monitored by an immunofluorescence staining.
FIG. 9 illustrates the effect of the ergothioneine on the protein expressions of the cytosolic Nrf2 and the nuclear Nrf2 of the UVA-irradiated HaCaT cells. FIG. 9-(A) represents the Western blot analysis result. FIG. 9-(B) is the fluorescent photomicrograph of the immunofluorescence staining (200× magnifications). […] In FIG. 9-(B), the nucleus is labelled with 4′,6-diamidino-2-phenylindole (DAPI), and the Nrf2 is labelled with green fluorescence to measure the expression and a localization of the Nrf2.

Nrf2 [3] = experiment: Western blot of Nrf2 signaling pathway associated proteins (Nrf2, Keap-1, HO-1, NQO-1, γ-GCLC)
Protocol: The effect of the ergothioneine on expressions of Nrf2 protein and downstream proteins of the HaCaT cells is monitored by the Western blot analysis. The detected downstream proteins are heme oxygenase-1 (HO-1) γ-glutamylcysteine ligase catalytic subunit (γ-GCLC) and NAD(P)H: quinone acceptor oxidoreductase 1 (NQO-1). The HaCaT cells are incubated with or without the ergothioneine for 1 hour or 4 hours, wherein the concentration of the ergothioneine is 125 nM, 250 nM and 500 nM, respectively. After incubation, the HaCaT cells are suspended in a lysis buffer to collect the proteins. FIG. 7 illustrates the effect of the ergothioneine on the expressions of the Nrf2 signaling pathway associated proteins of the HaCaT cells.
In addition, we examine the effect of the ergothioneine on the expressions of the Nrf2 and the Nrf2 pathway associated proteins of the HaCaT cells treated with the UVA irradiation. The HaCaT cells are incubated with or without the ergothioneine for 24 hours, wherein the concentration of the ergothioneine is 125 nM, 250 nM and 500 nM, respectively. After incubation, the HaCaT cells are exposed to the UVA (15 J/cm^2), and then cultured for 1 hour or 4 hours. Next, the HaCaT cells are suspended in the lysis buffer to collect the proteins, and the protein expressions are measured by the Western blot analysis. FIG. 8 illustrates the effect of the ergothioneine on the expressions of the Nrf2 signaling pathway associated proteins of the UVA-irradiated HaCaT cells. FIG. 8-(A) represents the Western blot analysis results of total Nrf2 and Keap-1 protein levels, wherein the HaCaT cells are pretreated with the ergothioneine (125-500 nM), and then exposed to the UVA for 1 hour. FIG. 8-(B) represents the Western blot analysis results of the HO-1 the NQO-1 and the γ-GCLC proteins, wherein the HaCaT cells are pretreated with the ergothioneine (125-500 nM), and then exposed to the UVA for 4 hour.

[4] = tested on: UVA-irradiated HaCaT cells; experiment: Intracellular ROS generation (HDCF-DA / DCF fluorescence)
Protocol: An exposure of the UVA will stimulate cells generating ROS. […] The HDCF-DA is a lipid-soluble fluorescent dye and has a cell membrane permeability. The HDCF-DA will bind to intracellular esterases to form a non-fluorescent 2′,7′-dichlorofluorescin (DCFH). The DCFH is subsequently oxidated by H2O2 to form a fluorescent 2′,7′-dichlorofluorescein (DCF), and then accumulated in a mitochondria. […] The HaCaT cells are subsequently incubated with or without the ergothioneine, and then maintained at 37° C. in a humidified atmosphere of 5% CO2 for 24 hours, wherein the concentration of the ergothioneine is 500 nM. Next, the HaCaT cells are washed with PBS three times, and then irradiated with the UVA (15 J/cm^2). After the UVA irradiation, the PBS is replaced with 1 mL of HDCF-DA (10 μM) in each well to react at 37° C. in the dark for 30 minutes. After the reaction, the fluorescent dye is removed, and the HaCaT cells are washed with PBS thrice to remove the remaining fluorescent dye. The intracellular ROS, as indicated by DCF fluorescence, is measured with the fluorescence microscope and photographed.

[5] = ergothioneine alone, vs control
[6] = 125-500 nM 24 hours pretreatment, UVA 15 J/cm^2, 4 hours

## C[N+](C)(C)[C@@H](Cc1c[nH]c(=S)[nH]1)C(=O)[O-] [ergothioneine, 2-mercapto histidine trimethylbetain]
[1]
  total glutathione level: increased
Nrf2 [2]; ergothioneine 24 hours prior to 15 J/cm^2 UVA, 1 hour
  nuclear Nrf2 protein expression: significantly increased
Nrf2 [2]; ergothioneine alone, immunofluorescence staining
  fluorescence intensity of the Nrf2: slightly increased
Nrf2 [2]; [5]
  cytosolic Nrf2 protein expression: significantly decreased
  nuclear Nrf2 protein expression: slightly increased
Nrf2 [2]; ergothioneine prior to UVA irradiation, immunofluorescence staining
  fluorescence intensity of the nuclear Nrf2: pronounced fluorescence intensity of the nuclear Nrf2
Nrf2 [2]; ergothioneine prior to UVA irradiation, vs control
  cytosolic Nrf2 protein expression: significantly decreased
Nrf2 [3]; 125-500 nM 24 hours pretreatment, UVA 15 J/cm^2, 1 hour
  Nrf2 expression (Nrf2/Keap-1 ratio): dramatically increases the Nrf2 expression
Nrf2 [3]; [6]
  expression of HO-1 protein: also increased
  expression of NQO-1 protein: also increased
  expression of γ-GCLC protein: also increased
Nrf2 [3]; 125-500 nM for 1 hour, no UVA, especially with 500 nM
  total Nrf2 protein level: increases the total Nrf2 protein level
Nrf2 [3]; 125-500 nM for 4 hours, no UVA
  expression of HO-1 protein: also increased
  expression of NQO-1 protein: also increased
  expression of γ-GCLC protein: also increased
[4]; 500 nM 24 hours prior to 15 J/cm^2 UVA
  DCF fluorescence (UVA-induced ROS generation): ignificantly decreased
[4]; 500 nM alone, no UVA
  ROS generation: non-effect
